Among the test systems are NCI-H522 lung; MALME-3M melanoma; HS 578T breast; SNB-19 CNS; UO-31 renal; SW-620 colon; NCI-H226 lung; A498 renal; T-47D breast; MOLT-4 leukemia; U251 CNS; RXF 393 renal; ACHN renal; MDA-N; PC-3 prostate; UACC-62 melanoma; COLO 205 colon; NCI/ADR-RES ovarian; HCT-116 colon.
Holding throughout (test): growth of human tumour cells (NCI), 48 h

Each structure is given as a SMILES string.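 Step 1: Grow cells in 96-well plates. Step 2: Expose to compound for 48 hours at 5 concentrations. Step 3: Interpolate endpoints linearly; if unreached, use highest concentration. TGI: total growth inhibition.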 Some results are limits rather than exact numbers.

Consider `N#CC1=C(N2CCCC2)NC(=O)CC1=O`, for which the TGI with NCI-H522 lung, in the assay with MALME-3M melanoma, in the assay with HS 578T breast, with SNB-19 CNS, in the assay with UO-31 renal and with SW-620 colon was > 100 µM throughout. Moreover, the TGI in the assay with NCI-H226 lung, in the assay on A498 renal, with T-47D breast, in the assay with MOLT-4 leukemia, in the assay on U251 CNS and in the assay with RXF 393 renal was > 100 µM in each case. For the same compound, the TGI in the assay with ACHN renal, with MDA-N, in the assay on PC-3 prostate, with UACC-62 melanoma, in the assay with COLO 205 colon and in the assay with NCI/ADR-RES ovarian was > 100 µM each time. Also, the TGI in the assay with HCT-116 colon was > 100 µM.
Regarding `CC1=C2C3=C(C)C(=O)C(C)(C)CC[C@@]3(C)[C@]2(C)CCC(C)(C)C1=O`, the TGI in the assay with NCI-H522 lung, with MALME-3M melanoma, with HS 578T breast, with SNB-19 CNS, with UO-31 renal and in the assay on SW-620 colon was > 100 µM each time. The TGI in the assay with NCI-H226 lung, with A498 renal, in the assay with T-47D breast, in the assay with MOLT-4 leukemia, in the assay on U251 CNS and in the assay with RXF 393 renal was > 100 µM each time. The TGI in the assay on ACHN renal, in the assay on MDA-N, in the assay on PC-3 prostate, in the assay on UACC-62 melanoma, in the assay on COLO 205 colon and in the assay on NCI/ADR-RES ovarian was > 100 µM each time. Also, the TGI with HCT-116 colon is > 100 µM.
On to `CCC1c2[nH]c3ccccc3c2C[C@H]2C(=O)NC(CCC(=O)OC(C)(C)C)C(=O)N12` (stereo partly drawn), for which the TGI in the assay with NCI-H522 lung, in the assay with MALME-3M melanoma, in the assay on HS 578T breast, with SNB-19 CNS, with UO-31 renal and in the assay on SW-620 colon was > 100 µM in each case. Also, the TGI in the assay with NCI-H226 lung, with A498 renal, with T-47D breast, in the assay with MOLT-4 leukemia, in the assay with U251 CNS and in the assay on RXF 393 renal was > 100 µM each time. The TGI with ACHN renal was > 100 µM; in the assay with MDA-N, > 100 µM; in the assay on PC-3 prostate it was > 100 µM; with UACC-62 melanoma, > 100 µM; with COLO 205 colon, 72.3 µM; in the assay with NCI/ADR-RES ovarian, > 100 µM. Also, in the assay on HCT-116 colon, the TGI is > 100 µM.
For the compound `NC(N)=N/N=C/c1c(Cl)nc2sccn12`, the TGI with NCI-H522 lung was 84 µM; in the assay with MALME-3M melanoma it was 50.3 µM; with HS 578T breast, 84.8 µM; in the assay on SNB-19 CNS, > 100 µM; with UO-31 renal, > 100 µM; in the assay with SW-620 colon, 41.1 µM. For the same compound, the TGI in the assay on NCI-H226 lung is 66.9 µM; in the assay on A498 renal it was > 100 µM; in the assay with T-47D breast, > 100 µM; in the assay with MOLT-4 leukemia, > 100 µM; in the assay with U251 CNS, > 100 µM; with RXF 393 renal, 65.1 µM. Moreover, the TGI is 33.4 µM in the assay with ACHN renal; > 100 µM in the assay with MDA-N; > 100 µM in the assay on PC-3 prostate; > 100 µM in the assay on UACC-62 melanoma; 33.5 µM in the assay with COLO 205 colon; > 100 µM in the assay on NCI/ADR-RES ovarian. Further, in the assay on HCT-116 colon, the TGI was 31.7 µM.
For `O=C(CNc1ccc(Cl)cc1)Nn1c(-c2ccccc2)nc2ccccc2c1=O`, the TGI in the assay with NCI-H522 lung was found to be 11.5 µM; with MALME-3M melanoma it was 13.7 µM; in the assay on HS 578T breast, 67 µM; in the assay with SNB-19 CNS it was 24.5 µM; in the assay with UO-31 renal it was 20.4 µM; with SW-620 colon, 11.9 µM. Also, the TGI with NCI-H226 lung amounted to 25.2 µM; with A498 renal, 29.7 µM; in the assay on T-47D breast, 32.6 µM; in the assay on MOLT-4 leukemia, 16.2 µM; in the assay with U251 CNS, 5.02 µM; with RXF 393 renal, 17.4 µM. Further, the TGI with ACHN renal is 22.3 µM; in the assay on MDA-N, 22.5 µM; with PC-3 prostate, 25.4 µM; in the assay on UACC-62 melanoma it was 10.9 µM; in the assay with COLO 205 colon it was 18.6 µM; in the assay on NCI/ADR-RES ovarian, 19 µM. In addition, the TGI in the assay on HCT-116 colon worked out at 4.65 µM.
Regarding `O=c1[nH]nc(-c2cccc(Br)c2)[nH]1`, the TGI is > 100 µM in the assay with NCI-H522 lung; > 100 µM in the assay with MALME-3M melanoma; 79.7 µM in the assay with HS 578T breast; > 100 µM in the assay on SNB-19 CNS; > 100 µM with UO-31 renal; > 100 µM with SW-620 colon. The TGI with NCI-H226 lung, in the assay with A498 renal, with T-47D breast, in the assay on MOLT-4 leukemia, in the assay with U251 CNS and in the assay on RXF 393 renal was > 100 µM each time. Moreover, the TGI in the assay on ACHN renal, in the assay on MDA-N, in the assay with PC-3 prostate, in the assay on UACC-62 melanoma, in the assay on COLO 205 colon and with NCI/ADR-RES ovarian was > 100 µM throughout. The TGI in the assay on HCT-116 colon is > 100 µM.
On to `c1ccc2c(c1)nc1n2CNCC1`, for which the TGI in the assay with NCI-H522 lung, with MALME-3M melanoma, in the assay with HS 578T breast, in the assay with SNB-19 CNS, in the assay on UO-31 renal and in the assay with SW-620 colon was > 100 µM each time. Besides, the TGI with NCI-H226 lung, with A498 renal, with T-47D breast, in the assay on MOLT-4 leukemia, with U251 CNS and in the assay with RXF 393 renal was > 100 µM throughout. For the same compound, the TGI with ACHN renal, with MDA-N, in the assay on PC-3 prostate, in the assay with UACC-62 melanoma, with COLO 205 colon and in the assay on NCI/ADR-RES ovarian was > 100 µM throughout. In the assay with HCT-116 colon, the TGI is > 100 µM.

The record behind these values is PubChem BioAssay (NCI).
